PMC5522460, “Crystal structure of a low molecular weight activator Blm-pep with yeast 20S proteasome – insights into the enzyme activation mechanism” (Scientific Reports, 2017)
Where no end group is shown, it is not given here.

Target: human 20S proteasome (Homo sapiens, UniProt P25786+P28066)
Experiment: Proteolytic stability assay with human 20S proteasome
Type: in vitro ADME
Settings: 10 µM peptide, 0.025 mg/ml h20S, 25 mM Tris-HCl pH 8.0, 3 hours, 37 °C, RP-HPLC and MALDI TOF
Description: Blm-pep was incubated either with human or yeast 20S proteasome. Both assays were conducted in 25 mM Tris-HCl buffer (pH 8.0, measured at 20 °C), which for y20S contained 0.25 mM EDTA as an additive. The peptide and proteasome concentrations in 100 μl final solution were 10 µM and 0.025 mg/ml, respectively. Incubation was carried out for 3 hours at 37 °C. The reaction was stopped by addition of 5 μl of 10% TFA. Results were analyzed using RP-HPLC and MALDI TOF. Prior to MS analysis the samples were desalted using C18 spin columns (Pierce).

KYFTGSKLWRSYYA [Blm-pep]
proteolytic stability with human 20S proteasome: digested
